Assay results: PMC3230241 (Nature biotechnology, 2011)

Target: CHK2 (Homo sapiens, UniProt O96017)
Assay: HotSpot radiometric kinase assay, CHK2
Assay type: biochemical
Details: compound 0.5 μM, 10 μM ATP; Fig. 4b

CHK2, sequence (O96017 whole entry): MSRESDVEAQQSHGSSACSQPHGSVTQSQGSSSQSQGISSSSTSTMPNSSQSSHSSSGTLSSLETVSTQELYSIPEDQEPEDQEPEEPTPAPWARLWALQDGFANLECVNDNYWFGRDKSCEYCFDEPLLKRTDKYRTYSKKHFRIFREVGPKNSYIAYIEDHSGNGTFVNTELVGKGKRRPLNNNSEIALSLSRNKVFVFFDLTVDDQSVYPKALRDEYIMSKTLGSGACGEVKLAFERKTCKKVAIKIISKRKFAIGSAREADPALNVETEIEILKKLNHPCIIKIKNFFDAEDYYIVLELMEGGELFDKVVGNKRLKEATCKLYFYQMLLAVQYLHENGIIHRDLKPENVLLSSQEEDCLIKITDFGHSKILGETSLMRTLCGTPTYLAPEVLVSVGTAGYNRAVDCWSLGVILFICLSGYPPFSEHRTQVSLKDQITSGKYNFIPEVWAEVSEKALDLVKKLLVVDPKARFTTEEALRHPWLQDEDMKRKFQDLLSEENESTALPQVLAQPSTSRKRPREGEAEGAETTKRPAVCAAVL

inhibition of CHK2: potent inhibition
SMILES: COc1cc2ncnc(Nc3ccc(OCc4ccccc4)cc3)c2cc1OC [EGFR/ErbB-2 Inhibitor, 4-(4-benzyloxyanilino)-6,7-dimethoxyquinazoline]
